Measurements: ChEMBL document CHEMBL4602639, “A novel series of 11-O-carbamoyl-3-O-descladinosyl clarithromycin derivatives bearing 1,2,3-triazole group: Design, synthesis and antibacterial evaluation” (2020)
≈ marks a conversion by molar mass, not a printed value. Calls of active or inactive are those of the source. No cut-off for these calls is given here.

Assays:
Streptococcus pneumoniae [1] = test: Antibacterial activity against erythromycin-resistant Streptococcus pneumoniae B1 expressing ermB gene by standard broth microdilution method; assay type: functional
Streptococcus pneumoniae [2] = test: Potency index, ratio of MIC of AZM to MIC of compound for antibacterial activity against erythromycin-resistant Streptococcus pneumoniae AB11 expressing ermB and me/A genes; assay type: functional
Staphylococcus aureus [3] = test: Antibacterial activity against erythromycin-susceptible Staphylococcus aureus ATCC 25923 by standard broth microdilution method; assay type: functional
Streptococcus pneumoniae [4] = test: Antibacterial activity against erythromycin-resistant Streptococcus pneumoniae AB11 expressing ermB and me/A genes by standard broth microdilution method; assay type: functional
Streptococcus pneumoniae [5] = test: Potency index, ratio of MIC of CAM to MIC of compound for antibacterial activity against erythromycin-resistant Streptococcus pneumoniae AB11 expressing ermB and me/A genes; assay type: functional
Bacillus subtilis [6] = test: Antibacterial activity against penicillin-susceptible Bacillus subtilis ATCC 9372 by standard broth microdilution method; assay type: functional
Staphylococcus aureus [7] = test: Antibacterial activity against methicillin-resistant Staphylococcus aureus ATCC 43300 by standard broth microdilution method; assay type: functional
Escherichia coli = test: Antibacterial activity against penicillin-susceptible Escherichia coli ATCC 25922 by standard broth microdilution method; assay type: functional
Pseudomonas aeruginosa = test: Antibacterial activity against penicillin-susceptible Pseudomonas aeruginosa ATCC 27853 by standard broth microdilution method; assay type: functional
Streptococcus pyogenes [8] = test: Antibacterial activity against erythromycin resistant Streptococcus pyogenes R1 by standard broth microdilution method; assay type: functional
Streptococcus pneumoniae [9] = test: Bacteriostatic activity against erythromycin-resistant Streptococcus pneumoniae AB11 expressing ermB and me/A genes at 1 to 4 MIC incubated for 9 to 24 hrs by time-kill curve assay; assay type: functional, organism-based
Bacillus subtilis [10] = test: Ratio of MBC for penicillin-susceptible Bacillus subtilis ATCC 9372 to MIC for penicillin-susceptible Bacillus subtilis ATCC 9372; assay type: functional
Streptococcus pyogenes [11] = test: Potency index, ratio of MIC of AZM to MIC of compound for antibacterial activity against erythromycin resistant Streptococcus pyogenes R1; assay type: functional
Streptococcus pyogenes [12] = test: Potency index, ratio of MIC of CAM to MIC of compound for antibacterial activity against erythromycin resistant Streptococcus pyogenes R1; assay type: functional
Bacillus subtilis [13] = test: Bactericidal activity against penicillin-susceptible Bacillus subtilis ATCC 9372; assay type: functional
Streptococcus pneumoniae [14] = test: Ratio of MBC for erythromycin-resistant Streptococcus pneumoniae AB11 expressing ermB and me/A genes to MIC for erythromycin-resistant Streptococcus pneumoniae AB11 expressing ermB and me/A genes; assay type: functional
Streptococcus pneumoniae [15] = test: Bactericidal activity against erythromycin-resistant Streptococcus pneumoniae AB11 expressing ermB and me/A genes; assay type: functional
Streptococcus pneumoniae [16] = test: Bactericidal activity against erythromycin-resistant Streptococcus pneumoniae AB11 expressing ermB and me/A genes at 1 to 4 times of MIC incubated for 9 hrs by time-kill curve assay; assay type: functional, organism-based
Staphylococcus aureus [17] = test: Potency index, ratio of MIC of AZM to MIC of compound for antibacterial activity against methicillin-resistant Staphylococcus aureus ATCC 43300; assay type: functional
Staphylococcus aureus [18] = test: Potency index, ratio of MIC of CAM to MIC of compound for antibacterial activity against methicillin-resistant Staphylococcus aureus ATCC 43300; assay type: functional
Streptococcus pneumoniae [19] = test: Potency index, ratio of MIC of AZM to MIC of compound for antibacterial activity against erythromycin-resistant Streptococcus pneumoniae B1 expressing ermB gene; assay type: functional
Streptococcus pneumoniae [20] = test: Potency index, ratio of MIC of CAM to MIC of compound for antibacterial activity against erythromycin-resistant Streptococcus pneumoniae B1 expressing ermB gene; assay type: functional

| SMILES | MIC (Streptococcus pneumoniae [1]) [µg/mL] | Ratio (Streptococcus pneumoniae [2]) | MIC (Staphylococcus aureus [3]) [µg/mL] | MIC (Streptococcus pneumoniae [4]) [µg/mL] | Ratio (Streptococcus pneumoniae [5]) | MIC (Bacillus subtilis [6]) [µg/mL] | MIC (Staphylococcus aureus [7]) [µg/mL] | MIC (Escherichia coli) [µg/mL] | MIC (Pseudomonas aeruginosa) [µg/mL] | MIC (Streptococcus pyogenes [8]) [µg/mL] | Ratio (Bacillus subtilis [10]) | Ratio (Streptococcus pyogenes [11]) | Ratio (Streptococcus pyogenes [12]) | MBC (Bacillus subtilis [13]) [µg/mL] | Ratio (Streptococcus pneumoniae [14]) | MBC (Streptococcus pneumoniae [15]) [µg/mL] | other results |
| --- | --- | --- | --- | --- | --- | --- | --- | --- | --- | --- | --- | --- | --- | --- | --- | --- | --- |
| CC[C@H]1OC(=O)[C@H](C)C(=O)[C@H](C)[C@@H](O[C@H]2O[C@@H](C)C[C@@H](N(C)C)[C@@H]2O)[C@](C)(OC)C[C@@H](C)C(=O)[C@H](C)[C@@H](OC(=O)NCCCn2cc(-c3ccccc3OC)nn2)[C@]1(C)O | 256 (≈ 303 µM) | 8 - 16 | 8 (≈ 9.46 µM) | 32 (≈ 37.8 µM) | 4 - 8 | 2 (≈ 2.36 µM) | > 256 | > 128 | 128 (≈ 151 µM) | 64 (≈ 75.6 µM) |  |  |  |  |  |  |  |
| CC[C@H]1OC(=O)[C@H](C)C(=O)[C@H](C)[C@@H](O[C@H]2O[C@@H](C)C[C@@H](N(C)C)[C@@H]2O)[C@](C)(OC)C[C@@H](C)C(=O)[C@H](C)[C@@H](OC(=O)NCCCn2cc(-c3cccc(N)c3)nn2)[C@]1(C)O | 128 (≈ 154 µM) | 8 - 16 | 16 (≈ 19.3 µM) | 32 (≈ 38.5 µM) | 4 - 8 | 4 (≈ 4.81 µM) | > 256 | > 128 | 128 (≈ 154 µM) | 128 (≈ 154 µM) |  |  |  |  |  |  |  |
| CC[C@H]1OC(=O)[C@H](C)C(=O)[C@H](C)[C@@H](O[C@H]2O[C@@H](C)C[C@@H](N(C)C)[C@@H]2O)[C@](C)(OC)C[C@@H](C)C(=O)[C@H](C)[C@@H](OC(=O)NCCCn2cc(-c3ccc(Cl)cc3)nn2)[C@]1(C)O | 64 (≈ 75.3 µM) | 8 - 16 | 4 (≈ 4.7 µM) | 16 (≈ 18.8 µM) | 4 - 8 | 1 (≈ 1.18 µM) | 128 (≈ 151 µM) | > 128 | 128 (≈ 151 µM) | 32 (≈ 37.6 µM) | 512 | 8 - 16 | 8 - 16 | 128 (≈ 151 µM) | 1 | 128 (≈ 151 µM) | Activity (Streptococcus pneumoniae [9]): Dose-dependent effect; Activity (Streptococcus pneumoniae [16]): Active |
| CC[C@H]1OC(=O)[C@H](C)[C@@H](O[C@H]2C[C@@](C)(OC)[C@@H](O)[C@H](C)O2)[C@H](C)[C@@H](O[C@@H]2O[C@H](C)C[C@H](N(C)C)[C@H]2O)[C@](C)(OC)C[C@@H](C)C(=O)[C@H](C)[C@@H](O)[C@]1(C)O [CLARITHROMYCIN] | > 256 |  | 0.25 (≈ 0.334 µM) | 128 (≈ 171 µM) |  | 0.25 (≈ 0.334 µM) | > 256 | > 128 | 32 (≈ 42.8 µM) | 256 (≈ 342 µM) | 128 |  |  | 128 (≈ 171 µM) | 16 | 256 (≈ 342 µM) |  |
| CCCCc1ccc(-c2cn(CCCNC(=O)O[C@@H]3[C@@H](C)C(=O)[C@H](C)C[C@@](C)(OC)[C@H](O[C@H]4O[C@@H](C)C[C@@H](N(C)C)[C@@H]4O)[C@@H](C)C(=O)[C@@H](C)C(=O)O[C@H](CC)[C@@]3(C)O)nn2)cc1 | 32 (≈ 36.7 µM) | 8 - 16 | 16 (≈ 18.3 µM) | 32 (≈ 36.7 µM) | 4 - 8 | 2 (≈ 2.29 µM) | 64 (≈ 73.4 µM) | > 128 | 128 (≈ 147 µM) | 16 (≈ 18.3 µM) |  | 8 - 16 | 8 - 16 |  |  |  | Ratio (Staphylococcus aureus [17]): >4; Ratio (Staphylococcus aureus [18]): >4 |
| CC[C@H]1OC(=O)[C@H](C)C(=O)[C@H](C)[C@@H](O[C@H]2O[C@@H](C)C[C@@H](N(C)C)[C@@H]2O)[C@](C)(OC)C[C@@H](C)C(=O)[C@H](C)[C@@H](OC(=O)NCCCn2cc(-c3cccc(Br)c3)nn2)[C@]1(C)O | 64 (≈ 71.5 µM) | 8 - 16 | 8 (≈ 8.94 µM) | 32 (≈ 35.8 µM) | 4 - 8 | 2 (≈ 2.23 µM) | 128 (≈ 143 µM) | > 128 | 128 (≈ 143 µM) | 32 (≈ 35.8 µM) |  | 8 - 16 | 8 - 16 |  |  |  |  |
| CC[C@H]1OC(=O)[C@H](C)C(=O)[C@H](C)[C@@H](O[C@H]2O[C@@H](C)C[C@@H](N(C)C)[C@@H]2O)[C@](C)(OC)C[C@@H](C)C(=O)[C@H](C)[C@@H](OC(=O)NCCCn2cc(-c3ccc(-c4ccccc4)cc3)nn2)[C@]1(C)O | 16 (≈ 17.9 µM) | 8 - 16 | 4 (≈ 4.48 µM) | 16 (≈ 17.9 µM) | 4 - 8 | 1 (≈ 1.12 µM) | 64 (≈ 71.7 µM) | > 128 | 128 (≈ 143 µM) | 16 (≈ 17.9 µM) | 32 | 8 - 16 | 8 - 16 | 32 (≈ 35.9 µM) | 8 | 128 (≈ 143 µM) | Ratio (Staphylococcus aureus [17]): >4; Ratio (Streptococcus pneumoniae [19]): >16; Ratio (Staphylococcus aureus [18]): >4; Ratio (Streptococcus pneumoniae [20]): >16 |
| CCCCc1ccc(-c2cn(CCNC(=O)O[C@@H]3[C@@H](C)C(=O)[C@H](C)C[C@@](C)(OC)[C@H](O[C@H]4O[C@@H](C)C[C@@H](N(C)C)[C@@H]4O)[C@@H](C)C(=O)[C@@H](C)C(=O)O[C@H](CC)[C@@]3(C)O)nn2)cc1 | 128 (≈ 149 µM) |  | 16 (≈ 18.6 µM) | 64 (≈ 74.6 µM) |  | 4 (≈ 4.66 µM) | 256 (≈ 298 µM) | > 128 | 128 (≈ 149 µM) | 32 (≈ 37.3 µM) |  | 8 - 16 | 8 - 16 |  |  |  |  |
| CC[C@H]1OC(=O)[C@H](C)C(=O)[C@H](C)[C@@H](O[C@H]2O[C@@H](C)C[C@@H](N(C)C)[C@@H]2O)[C@](C)(OC)C[C@@H](C)C(=O)[C@H](C)[C@@H](OC(=O)NCCn2cc(-c3ccc(-c4ccccc4)cc3)nn2)[C@]1(C)O | 128 (≈ 146 µM) |  | 32 (≈ 36.4 µM) | 64 (≈ 72.9 µM) |  | 4 (≈ 4.56 µM) | 128 (≈ 146 µM) | > 128 | 128 (≈ 146 µM) | 32 (≈ 36.4 µM) |  | 8 - 16 | 8 - 16 |  |  |  |  |
